Experimental data taken from article PMC11943723, “Synthesis and Biological Activity of Glycosyl Thiazolyl Disulfides Based on Thiacarpine, an Analogue of the Cytotoxic Alkaloid Polycarpine from the Ascidian Polycarpa aurata” (Marine Drugs, 2025).
In brackets after ≈: the same amount, converted by molar mass. Where a name gives a salt, the structure may show the parent alone.

Legend:
[1] = system: Candida albicans (KMM 455); assay: Antimicrobial activity, inhibition of microbial growth (optical density); assay type: cell-based; details: 18 h, OD 620 nm; for MIC50: Candida albicans, KMM455, read-out: Inhibition of Microbial Growth MIC50, C. albicans
Procedure: (§1) The antimicrobial activity of the compounds was determined against Gram-positive bacteria Staphylococcus aureus (ATCC 21027), Gram-negative bacteria Escherichia coli (VKPM B-7935), and yeast-like fungi Candida albicans (KMM 455) (all test strains were obtained from the Collection of Marine Microorganisms KMM PIBOC FEB RAS) in liquid nutrient media. Test cultures of S. aureus, E. coli, and C. albicans were grown in Petri dishes on a solid nutrient medium (Mueller–Hinton broth with the addition of agar—16.0 g/L) at 37 °C for 24 h. The antimicrobial activity of the compounds was determined by the change in optical density and expressed as the percentage of bacterial inhibition at different concentrations of substances added to the well of the microorganism suspension, compared to the control. The compounds were dissolved in dimethyl sulfoxide (DMSO) at a concentration of 10 mM and stored at −20 °C. Before the experiment, the solution of substances in DMSO was diluted with PBS at a concentration of 0.5–100.0 µM and added to the wells so that the concentration of DMSO in the culture medium was less than 1%. Antimicrobial activity was determined in 96-well microplates in a liquid Mueller–Hinton nutrient medium. For S. aureus, E. coli, and C. albicans, a bacterial suspension of 10^6 CFU in 1 mL of the media was used, 90 μL was added to each well of the microplates and then incubated in a thermostatted shaker at 37 °C for 18 h. Inhibition of microorganism growth was assessed by measuring the optical density at 620 nm using a microplate reader (Thermo Fisher Scientific, Waltham, MA, USA) after preliminary shaking of the plates for 10 min. All experiments were performed in triplicate. Gentamicin (S. aureus and E. coli) and nitrofungin (C. albicans) were used as positive controls, and 1% DMSO in PBS was used as a negative control.

[2] = system: Escherichia coli (VKPM B-7935); assay: as above; assay type: cell-based; details: Escherichia coli; 18 h, OD 620 nm; read-out: Inhibition of Microbial Growth MIC50, E. coli
Procedure: as §1

[3] = system: Staphylococcus aureus (ATCC 21027); assay: as above; assay type: cell-based; details: Staphylococcus aureus, ATCC21027; 18 h, OD 620 nm; read-out: Inhibition of Microbial Growth MIC50, S. aureus
Procedure: as §1

HeLa (cervical cancer) = assay: MTT cell viability assay, HeLa; assay type: cell-based, human; details: Homo sapiens, HeLa, 24 h, 24 h incubation, read-out: Cytotoxicity EC50, HeLa
Text: (§2) Human erythrocytes were purchased from the blood transfusion station Vladivostok. Human breast cancer cell lines MCF-7^HTB−22, and MDA-MB-231^CRM-HTB−26, liver hepatocellular carcinoma Hep G2^HB−8065, prostate adenocarcinoma PC-3^CRL−1435, cervical adenocarcinoma HeLa^CRM-CCL−2, and normal bronchial epithelial cells BEAS-2B ^CRL−3588 were received from ATCC (Manassas, VA, USA).
(§3) DMEM medium (Biolot, Russia) with 1% penicillin/streptomycin and 10% fetal bovine serum (FBS) (Biolot, Russia) was used for cultivation of Hep G2, PC-3, HeLa, and Beas-2b. MEM medium (Biolot, Russia) with 1% penicillin/streptomycin sulfate (Biolot, Russia) and FBS (Biolot, Russia) to a final concentration of 10% for MCF-7 and MDA-MB-231 cells.
(§4) The effect of the studied compounds on the viability of human cancer and normal cells was determined using the MTT (3-[4,5-dimethylthiazol-2-yl]-2,5 diphenyl tetrazolium bromide) assay. Briefly, 6 × 10^3 cells per well were seeded into 96-well plates and incubated for 24 h for adhesion, followed by incubation for 24 h with different concentrations of the substances. After incubation, the medium containing the test substances was replaced with 100 µL of fresh medium. Then, 10 μL of MTT (Sigma-Aldrich, Madison, WI, USA) reagent (5 mg/mL MTT in PBS) was added into the cells and the plates for additional 4 h. Thereafter, 100 µL of SDS-HCl solution (1 g SDS/10 mL dH2O/17 µL 6N HCl) was added to each well and incubated for 18 h. The absorbance of the converted formazan dye was measured using a Multiskan FC microplate photometer (Thermo Scientific, Waltham, MA, USA) at a wavelength of 570 nm. All experiments were performed in triplicate. Cytotoxic activity was expressed as a percentage of the cell viability.

[4] = system: Hep G2 (hepatocellular carcinoma); assay: MTT cell viability assay, Hep G2; assay type: cell-based; details: Homo sapiens, HepG2, 24 h incubation, read-out: Cytotoxicity EC50, Hep G2
Text: as §2, §3, §4

[5] = system: MDA-MB-231 (triple-negative breast cancer); assay: MTT cell viability assay, MDA-MB-231; assay type: cell-based, human; details: Homo sapiens, MDA-MB-231, 24 h, 24 h incubation, read-out: Cytotoxicity EC50, MDA-MB-231 (TNBC)
Text: as §2, §3, §4

[6] = MTT cell viability assay, BEAS-2B normal cells; assay type: cell-based; details: human, BEAS-2B normal bronchial epithelial cells, 24 h incubation, read-out: Cytotoxicity EC50, BEAS 2B
Text: as §2, §3, §4

[7] = system: Candida albicans (KMM 455); assay: Inhibition of biofilm formation (MTT); assay type: cell-based; details: 24 h
Procedure: Biofilm formation was performed according to the method described by Walencka et al., with minor modifications. The compounds were dissolved in dimethyl sulfoxide (DMSO) at a concentration of 10 mM and stored at −20 °C. Before the experiment, the solution of substances in DMSO was diluted with PBS at a concentration of 0.5–100.0 µM and added to the wells so that the concentration of DMSO in the culture medium was less than 1%. Biofilm formation was assessed in 96-well microplates in a liquid Mueller–Hinton nutrient medium. For S. aureus, E. coli, and C. albicans, a bacterial suspension of 10^6 CFU in 1 mL of medium was used, 90 μL was added to each well of the microplates and then incubated in a thermostatted shaker at 37 °C for 24 h. After incubation, the suspension of planktonic microorganisms was removed from the plate and washed with PBS. Next, 100 μL of PBS and 10 μL of MTT (3-(4,5-dimethylthiazol-2-yl)-2,5-diphenyltetrazolium bromide, MTT reagent, Sigma) stock solution (5 mg/mL) were added to the wells and incubated for 3 h at 37 °C. After incubation, all the solution was removed from the wells, 100 μL of DMSO was added, and the plate was shaken for 10 min until all formazan crystals had dissolved. The absorption was measured using a plate reader (Thermo Fisher Scientific, Waltham, MA, USA) at a wavelength of 570 nm. The activity of the substances was assessed by the change in optical density compared with that of the control. All experiments were performed in triplicate. Gentamicin (S. aureus and E. coli) and nitrofungin (C. albicans) were used as positive controls, and 1% DMSO in PBS was used as a negative control.

MIC50 [1]	MIC50 [2]	MIC50 [3]	Structure (SMILES)	EC50 (HeLa (cervical cancer))	EC50 [4]	EC50 [5]	EC50 at 24 h [6]	Inhibition of Microbial Growth MIC50, C. albicans [1]	Inhibition of Biofilm Formation MIC50, C. albicans [7]
6.2 ± 0.6 µM (≈ 2.57 µg/mL)	13.9 ± 1.3 µM (≈ 5.76 µg/mL)	5.2 ± 0.5 µM (≈ 2.16 µg/mL)	Nc1nc(-c2ccccc2)c(SSc2sc(N)nc2-c2ccccc2)s1 [Compound 1b, bis(2-amino-4-phenyl-5-thiazolyl)disulfide]						
3.1 ± 0.4 µM (≈ 1.77 µg/mL)	15.7 ± 2.3 µM (≈ 8.99 µg/mL)	3.4 ± 0.4 µM (≈ 1.95 µg/mL)	Nc1nc(-c2ccc(Br)cc2)c(SSc2sc(N)nc2-c2ccc(Br)cc2)s1 [Compound 1c]						
5 ± 0.4 µM (≈ 2.42 µg/mL)	30.9 ± 3 µM (≈ 14.9 µg/mL)	2.8 ± 0.2 µM (≈ 1.35 µg/mL)	Nc1nc(-c2ccc(Cl)cc2)c(SSc2sc(N)nc2-c2ccc(Cl)cc2)s1 [Compound 1d]						
19.5 ± 2 µM (≈ 8.63 µg/mL)	33.9 ± 3.9 µM (≈ 15 µg/mL)	30.7 ± 2.1 µM (≈ 13.6 µg/mL)	Cc1ccc(-c2nc(N)sc2SSc2sc(N)nc2-c2ccc(C)cc2)cc1 [Compound 1e]						
31.5 ± 3.1 µM (≈ 18.9 µg/mL)	> 50 µM	32.5 ± 3.2 µM (≈ 19.5 µg/mL)	COc1ccc(-c2nc(N)sc2SS[C@@H]2O[C@H](COC(C)=O)[C@@H](OC(C)=O)[C@H](OC(C)=O)[C@H]2OC(C)=O)cc1 [Compound 4a, 5-[(2,3,4,6-Tetra-O-acetyl-β-D-glucopyranosyl)disulfanyl]-2-amino-4-(4-methoxyphenyl) thiazole]	> 25 µM	> 25 µM	> 25 µM	19.9 µM		
20.5 ± 2.7 µM (≈ 11.7 µg/mL)	31.2 ± 2 µM (≈ 17.8 µg/mL)	28.4 ± 3.1 µM (≈ 16.2 µg/mL)	CC(=O)OC[C@H]1O[C@@H](SSc2sc(N)nc2-c2ccccc2)[C@H](OC(C)=O)[C@@H](OC(C)=O)[C@@H]1OC(C)=O [Compound 4b, 5-[(2,3,4,6-Tetra-O-acetyl-β-D-glucopyranosyl)disulfanyl]-2-amino-4-phenylthiazole]	> 25 µM	> 25 µM	24.1 µM	19 µM		
35.7 ± 3 µM (≈ 17.8 µg/mL)	42.1 ± 4.1 µM (≈ 21 µg/mL)	34 ± 1.6 µM (≈ 17 µg/mL)	CC(=O)O[C@@H]1[C@@H](OC(C)=O)[C@H](SSc2sc(N)nc2-c2ccccc2)OC[C@H]1OC(C)=O [Compound 4g, 5-[(2,3,4-Tri-O-acetyl-β-D-xylopyranosyl)disulfanyl]-2-amino-4-phenylthiazole]	> 25 µM	> 25 µM	> 25 µM	> 25 µM		
18.1 ± 1 µM (≈ 9.28 µg/mL)	25.5 ± 2 µM (≈ 13.1 µg/mL)	25 ± 1.4 µM (≈ 12.8 µg/mL)	CC(=O)O[C@@H]1[C@@H](OC(C)=O)[C@H](SSc2sc(N)nc2-c2ccc(C)cc2)OC[C@H]1OC(C)=O [Compound 4j, 5-[(2,3,4-Tri-O-acetyl-β-D-xylopyranosyl)disulfanyl]-2-amino-4-(p-tolyl)thiazole]	> 25 µM	> 25 µM	23.7 µM	> 25 µM		
> 50 µM	> 50 µM	> 50 µM	COc1ccc(-c2nc(N)sc2SS[C@@H]2O[C@H](CO)[C@@H](O)[C@H](O)[C@H]2O)cc1 [Compound 5a, 5-[(β-D-glucopyranosyl)disulfanyl]-2-amino-4-(4-methoxyphenyl)thiazole hydrochloride]	> 25 µM	> 25 µM	24.9 µM	> 25 µM		
> 50 µM	> 50 µM	> 50 µM	Nc1nc(-c2ccccc2)c(SS[C@@H]2O[C@H](CO)[C@@H](O)[C@H](O)[C@H]2O)s1 [Compound 5b, 5-[(β-D-glucopyranosyl)disulfanyl]-2-amino-4-phenylthiazole hydrochloride]	> 25 µM	> 25 µM	> 25 µM	20.8 µM		
38.5 ± 3.4 µM	> 50 µM	> 50 µM	Cc1ccc(-c2nc(N)sc2SS[C@@H]2O[C@H](CO)[C@@H](O)[C@H](O)[C@H]2O)cc1 [Compound 5e, 5-[(β-D-glucopyranosyl)disulfanyl]-2-amino-4-(p-tolyl)thiazole hydrochloride]	> 25 µM	> 25 µM	23.5 µM	22.6 µM		
36.2 ± 2.1 µM	> 50 µM	> 50 µM	COc1ccc(-c2nc(N)sc2SS[C@@H]2OC[C@@H](O)[C@H](O)[C@H]2O)cc1 [Compound 5f, 5-[(β-D-xylopyranosyl)disulfanyl]-2-amino-4-(4-methoxyphenyl)thiazole hydrochloride]	> 25 µM	> 25 µM	> 25 µM	> 25 µM		
25.3 ± 1 µM	24.9 ± 2.2 µM	> 50 µM	Nc1nc(-c2ccccc2)c(SS[C@@H]2OC[C@@H](O)[C@H](O)[C@H]2O)s1 [Compound 5g, 5-[(β-D-xylopyranosyl)disulfanyl]-2-amino-4-phenylthiazole hydrochloride]	> 25 µM	> 25 µM	> 25 µM	22 µM		
13.8 ± 1.2 µM	21 ± 3 µM	13.7 ± 1.1 µM	Nc1nc(-c2ccc(Cl)cc2)c(SS[C@@H]2OC[C@@H](O)[C@H](O)[C@H]2O)s1 [Compound 5i, 5-[(β-D-xylopyranosyl)disulfanyl]-2-amino-4-(4-clorophenyl)thiazole hydrochloride]	> 25 µM	> 25 µM	> 25 µM	> 25 µM		
	5.1 ± 0.7 µM (≈ 2.44 µg/mL)	4.3 ± 0.8 µM (≈ 2.05 µg/mL)	CNC(C)C1CCC(N)C(OC2C(N)CC(N)C(OC3OCC(C)(O)C(NC)C3O)C2O)O1 (centres unmarked) [Gentamicin, reference compound]						
			O=[N+]([O-])c1ccc(O)c(Cl)c1 [Nitrofungin, reference compound]					4.1 ± 0.5 µM	4.3 ± 0.4 µM
